This note sets out measurements from a melting point compilation (Tetko et al.; mined from patent text by program, amines drawn as free bases though some values may be those of a salt).

The term melting point denotes the temperature, or range, at which the solid turns liquid.

The structures appear in SMILES notation.

In turn, `Cn1c(OCC(CO)CO)nc2c(NC(=O)c3ccccc3)ncnc21` displayed a melting point of 151 to 153 °C.
For `Nc1nc(N)c(CCCNc2ccc(C(=O)N[C@@H](CCC(=O)O)C(=O)O)cc2)c(=O)[nH]1`, the melting point fell in the range of 195 to 200 °C.
As to `C[C@H](NC(=O)c1c[nH]c2ncc(-c3ccc(C(=O)NCc4ccccc4)s3)nc12)C(C)(C)C`, the melting point was in the range of 225 to 226 °C.
`CNC(=O)[C@@H](N)C(C)(C)C` had a melting point of 90 to 93 °C.
For the compound `CNC(=O)N1CC(C)(C)N(C)C(C)(C)CC1=O`, the melting point was 111 to 113 °C.
The result for `C#Cc1c[nH]c2ncnc(N3CCCCC3)c12` reads 179 to 181 °C.
The same measure for `CN(C)S(=O)(=O)N(C)c1ccc(C(=O)Nc2ccc(Cl)cc2)cc1`: 155 to 156 °C.
`NS(=O)(=O)c1cc2c(Cl)nccc2o1` had a melting point of 192 to 194 °C.
The same measure for `Fc1cccc(Cl)c1-c1cc(-c2ccc(Cl)cc2)nc2ncnn12`: 238 to 239 °C; for `COc1cc(N)c(F)cc1Br`: 60 to 62 °C; for `CCOC(=O)c1ccc(COc2cc(O)c(C(C)=O)cc2CC)cc1O`: 145 to 146 °C.
Take `COC(=O)c1cccc(CC(=O)Nc2cccc(/C=C/c3nc(C4CCC4)cs3)c2)c1`: the melting point lay within 119 to 120 °C.
The same measure for `COc1nc2ccccc2nc1NC(=O)N1CCN(c2cccc(Br)c2)CC1`: 148 to 150 °C.
The result for `CC(=O)Oc1cc(C(=O)Cl)cc(OC(C)=O)c1OC(C)=O` reads 108 to 110 °C; that for `Cc1nc(-c2c(Cl)cc(C(F)(F)F)cc2Cl)[nH]c1S(=O)(=O)Cl`, 227 to 230 °C; that for `CN1C(=O)[C@H](NC(=O)c2cc3ccccc3[nH]2)N=C(c2ccccc2)c2ccccc21`, 167 to 177 °C.
The result for `CCCCCCCOc1ccc(-c2ccc(OCc3ccccc3)c(F)c2)cc1F` reads 98.7 to 100 °C; that for `CCOC(=O)c1ccc(OC(=O)CCCCC(=O)Oc2ccc(C(=O)OCC)cc2)cc1`, 82 to 83 °C; that for `CC1(C)C=C(c2cccnc2)c2cc(Cl)c(Cl)cc2OC1`, 112 °C.
In turn, `Cc1cnc2c(c1-c1ccccc1)C(=O)N(Cc1cc(C(F)(F)F)cc(C(F)(F)F)c1)CCN(C)C2=O` came in with a melting point of 203 to 205 °C.
With `CC(C)(C)OC(=O)N1CCn2c(Cl)c(-c3cccc(C#N)c3)c(C(N)=O)c2C1`, the melting point is 206 to 208 °C.
The same measure for `CON=C1COc2cc(OCc3ccccc3N(OC)C(=O)OC)ccc21`: 102 to 103 °C; for `CN(C)C=CC(=O)c1ccc(-c2ccc(N(c3ccccc3)c3ccccc3)cc2)cc1`: 166 to 167 °C.
The same measure for `O=C(O)c1ccc(O)c(Oc2ccccc2)c1`: 181 to 183 °C; for `COc1ccc(C2CN(Cc3ccc4ccccc4n3)C(=O)N(Cc3ccc4ccccc4n3)C2)cc1OC1CC2CCC1C2` (centres undefined): 135 to 136 °C.
The result for `CCOC(=O)c1ccc(N=C(Nc2ccc(C(=O)OCC)cc2)c2ccccc2Cl)cc1` reads 98 to 108 °C.
`COc1ccc2c(c1)CC[C@@H](Br)[C@@H]2O` (relative stereo) came in with a melting point of 80 to 82 °C.
The same measure for `Cc1c(-c2ccc(O)cc2)sc(C=O)c1-c1ccc(O)cc1`: 223 to 225 °C; for `O=C(Nc1ccc2[nH]c(=O)oc2c1)C(=O)N1CCC(Cc2ccc(Cl)cc2)CC1`: 147 to 148 °C; for `C#CC[C@H](c1nc2cc(Cl)ccc2c(=O)n1Nc1ccccc1)N(CCCN)C(=O)c1cccc(F)c1F`: 168 to 170 °C.
`COc1cc(OC)c(-c2cccs2)cc1/C=C/C(=O)c1ccc(S(=O)(=O)NCCN2CCOCC2)cc1` came in with a melting point of 171 to 172 °C.
The result for `CC(C)(C)OC(=O)Nc1ccc(-c2cccc(F)c2F)cc1[N+](=O)[O-]` reads 93 °C.
The same measure for `O=Cc1ccc(-c2nnc(-c3ccccc3[N+](=O)[O-])o2)cc1`: 189 to 190 °C.
Consider `Oc1cccc2cc(-c3ccc(OCCN4CCCC4)cc3)sc12`, for which the melting point lay in the range of 180 to 183 °C.
Consider `CC(=O)NNc1nc(C(F)(F)F)nc(-c2ccccc2)c1-c1ccccc1`, for which the melting point was in the range of 113 to 116 °C.
Compound `CCCCCCc1csc2c(CCCCCC)csc12` yielded a melting point of 57.5 to 59.1 °C.
The same measure for `O=C(O)c1cc(=O)c2c(OCC(O)COc3ccccc3)cccc2o1` (centres undefined): 88 to 90 °C.
`N#Cc1ccc(-c2ccc(Cl)cc2)nc1Cl` came in with a melting point of 179 to 181 °C.
The result for `CC(C)(CO)c1cc(NC(=O)C(C)(C)S(=O)(=O)C2CCOCC2)on1` reads 191 to 192 °C; that for `Cc1ncc2c(n1)-c1ccc(Cl)cc1C(c1ccccc1)=NC2`, 120 to 122 °C.
Take `CCOC(=O)CC(Nc1ccccc1)c1ccccc1` (racemic): the melting point worked out at 87 °C.
`COCCCc1cc(F)c2ncc(C(=O)NCc3ccc(Cl)cc3)c(O)c2c1` yielded a melting point of 189 to 192 °C.
`Fc1ccc(-c2cc(N3CCC(c4ncc[nH]4)CC3)c3sccc3n2)cc1` had a melting point of 95 °C.
The same measure for `CC(c1nnnn1C)C(O)(c1ccc(F)cc1)c1ccc(F)cc1` (centres undefined): 160 to 161 °C; for `COC(=O)CSc1ncnc(N2CCc3ccccc3CC2)c1[N+](=O)[O-]`: 113 to 115 °C; for `Cc1c(C#N)ccc(N)c1C#N`: 209 to 210 °C.
The result for `N#Cc1ccc(-c2ccc(-c3cn4cc(C#N)ccc4n3)cc2)cc1` reads 276 to 278 °C; that for `COc1c(C=Cc2ccc(C=CC3=C(C#N)C(=C(C#N)C#N)OC3(C)C(F)(F)F)s2)cc2c3c1CCCN3CCC2` (centres undefined), 159 to 161 °C; that for `COc1ccc([C@H](Sc2ccccc2N)[C@@H](O)C(=O)Nc2ccccc2)cc1`, 215 to 217 °C.
The same measure for `Nc1nc2cc(OCC(=O)N3CCOCC3)ccc2c2c1nc1n2CCOC1`: 204 to 206 °C; for `CCCCc1nc2c(N)nc3cc(-c4ccc(C(C)(C)C)cc4)ccc3c2n1CC(C)C`: 219 to 220 °C.
As for `Cc1cc(C)c2c(O)c(O)c(O)nc2c1`, the melting point was 280 to 282 °C.
The result for `Cc1cccc(C)c1N(CC(C)OS(C)(=O)=O)S(C)(=O)=O` (centres undefined) reads 111 to 114 °C; that for `CN1CCC(OC(c2ccccc2)c2nc3ccccc3[nH]2)C1` (centres undefined), 53 °C.
The result for `CN(C)C1CCN(S(=O)(=O)c2cc(C#N)ccc2Oc2cc(F)ccc2F)CC1` reads 154 to 157 °C.
The result for `CNc1cccc([N+](=O)[O-])c1N` reads 93 °C; that for `O=CN1CC2CC1CN2c1cc2c(cc1F)c(=O)c(C(=O)O)cn2-c1ccc(F)cc1` (centres undefined), 274 to 276 °C; that for `O=C1c2cc(F)ccc2-n2c1nc1ccc(F)cc1c2=O`, 295 to 296 °C.
Turning to `CCC(=O)Nc1nc(CC(=O)N(C)c2ccc(Cl)cc2)cs1`, the melting point fell in the range of 153 to 155 °C.
Take `COc1ccc2c(c1)CCc1c(C(F)F)nn(-c3ccc(S(N)(=O)=O)cc3)c1-2`: the melting point lay within 256 to 257 °C.
On to `CCOc1ccc2c(=O)c(-c3nnnn3C)cn(C)c2c1`, for which the melting point lay in the range of 214 to 217 °C.
`CCc1ccc(C(N)=O)c([N+](=O)[O-])c1` displayed a melting point of 175 °C.
The same measure for `COc1cccc2c1CC(N(CCCc1c[nH]c3ccc(F)cc13)C1CC1)CO2` (centres undefined): 115 °C; for `Nc1cc(Cl)cnc1Oc1ccc(O)cc1`: 174 °C; for `Cc1ccc(NC(=O)N(C)C)cc1`: 154 to 157 °C.
The same measure for `CCOC(=S)Nc1cccc(Cl)c1`: 78 to 79 °C.
Consider `Cc1nc2c(o1)CCc1ccccc1C2=O`, for which the melting point lay within 174 to 176 °C.
The same measure for `N#Cc1cnn2cccc2c1NC1(c2ccc(Cl)cc2Cl)CC1`: 208 °C; for `O=C(O)Cc1cncc(Cc2nc3c(F)c(F)cc(F)c3s2)c1`: 196 to 197 °C.
Compound `CCCOC(=O)C1=C(N)NC(C)=C(C(=O)OCC)C1c1ccccc1C#N` (centres undefined) showed a melting point of 182 °C.
The result for `O=C(NCCCn1ccc2cc(NC(=O)c3nc4ccc(Cl)cc4n3Cc3ccccc3)ccc21)c1cccnc1` reads 206 to 207 °C; that for `CCOC(=O)C=Cc1cc(OC)c(OC)c([N+](=O)[O-])c1`, 87 to 88 °C; that for `CCOC(=O)CSc1nc(Cl)cc(Nc2ccc(Cl)cc2)n1`, 109 to 112 °C.
The result for `CCOc1ccc2[nH]cc(C(=O)NCc3ccccc3)c(=O)c2n1` reads 199 °C; that for `CCOC(=O)C(CCCc1ccccc1)(NC(C)=O)C(=O)OCC`, 76 to 77 °C; that for `O=C(O)c1nc(I)c2cc(Cc3ccc(F)cc3)cnc2c1OCc1ccccc1`, 132 to 134 °C.
`CC(C)(C)OC(=O)NC[C@H]1CC[C@H](C#N)CC1` registered a melting point of 100 to 101 °C.
The result for `CCOC(=O)c1ccc(SC)cn1` reads 44 to 46 °C; that for `C[C@H]1CCCC(C)(C)[C@@H]1[C@@H](O)c1ccc(Cl)c(F)c1`, 61.1 to 63.6 °C; that for `CN1CCC(N(C)c2ncc3ncnc(Nc4ccc(N)c([N+](=O)[O-])c4)c3n2)CC1`, 242 to 246 °C.
With `O=c1ccc(-c2c(-c3ccccc3)nn3ccccc23)nn1C1CN2CCC1CC2` (centres undefined), the melting point is 191 to 193 °C.
With `CCCCCCCCCCCCCCc1ccc(O)c(C(C)=O)c1`, the melting point lay within 38.5 to 39.5 °C.
The result for `C=CC[C@H]1CCC[C@H](N2C(=O)c3ccccc3C2=O)C(=O)N1CC(=O)OC` reads 107 to 109 °C; that for `CC(C)(CO)C1CCN(CC#Cc2cc(C(F)(F)F)cc(C(F)(F)F)c2)CC1`, 85 to 87 °C; that for `CCOC(Nc1ccccc1)(OCC)C1(Cl)C=CN=C(C(=O)c2ccccc2)C1` (centres undefined), 133 to 134 °C.
As for `O=C(c1ccc(O)cc1)c1sc2ccccc2c1-c1ccccc1`, the melting point fell in the range of 204 to 205 °C.
On to `CC(=O)N1CCc2c([nH]c3ccccc23)C1CCCCl` (centres undefined), for which the melting point was in the range of 166 to 168 °C.
`CCOC(=O)c1c(N2CCN(C=O)CC2)c2cc(F)ccc2n(Cc2ccccc2)c1=O` gave a melting point of 206 °C.
Compound `Cc1ccc(-c2cn(C)cc(-c3ccccc3)c2=O)cc1C` returned a melting point of 108 to 111 °C.
